17 molecules from ChEMBL document CHEMBL5360537, “From lead to clinic: A review of the structural design of P2X7R antagonists” (Eur J Med Chem, 2023) can be followed below.

For orientation: IC50 means the concentration that inhibits the measured activity by half. As a reminder, the inhibition is the percentage by which the read-out fell short of the control. As a reminder, the half-life is the time needed for the level to fall by half in the phase considered. A high value points to slow decline. Usually AUC(0-t) stands for exposure summed from dosing to a finite time, without extrapolation to infinity.

Bounds are passed on as bounds.

The target of series [1] is T1, P2X purinoceptor 7 (Homo sapiens, UniProt Q99572).
T1 sequence (Q99572 whole entry): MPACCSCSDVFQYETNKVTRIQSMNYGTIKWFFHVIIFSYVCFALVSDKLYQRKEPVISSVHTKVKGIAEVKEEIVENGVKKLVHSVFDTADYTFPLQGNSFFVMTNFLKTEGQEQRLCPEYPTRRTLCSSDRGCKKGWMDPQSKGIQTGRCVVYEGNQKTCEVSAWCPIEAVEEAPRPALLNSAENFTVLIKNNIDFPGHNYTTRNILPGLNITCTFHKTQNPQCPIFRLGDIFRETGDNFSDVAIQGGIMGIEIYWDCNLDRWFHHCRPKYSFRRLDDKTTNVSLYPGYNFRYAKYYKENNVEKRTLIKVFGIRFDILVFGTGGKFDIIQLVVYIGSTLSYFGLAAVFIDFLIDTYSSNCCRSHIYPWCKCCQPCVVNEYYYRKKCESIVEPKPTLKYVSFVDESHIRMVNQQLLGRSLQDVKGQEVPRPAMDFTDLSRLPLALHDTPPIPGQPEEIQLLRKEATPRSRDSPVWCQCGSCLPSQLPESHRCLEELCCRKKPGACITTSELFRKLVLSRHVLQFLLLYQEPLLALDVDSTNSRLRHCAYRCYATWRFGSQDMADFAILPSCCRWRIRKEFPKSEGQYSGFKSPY
In words: Antagonist activity at recombinant human P2X7 receptor expressed in 1321N1 cells measured after 30 mins by fluorescence based calcium flux assay. Format: cell-based. On the technique in general: A change in cytosolic calcium serves as a functional read-out for many receptors and channels.

Series [2] has as its target T2, P2X purinoceptor 7 (Rattus norvegicus, UniProt Q64663).
T2 sequence (Q64663 whole entry): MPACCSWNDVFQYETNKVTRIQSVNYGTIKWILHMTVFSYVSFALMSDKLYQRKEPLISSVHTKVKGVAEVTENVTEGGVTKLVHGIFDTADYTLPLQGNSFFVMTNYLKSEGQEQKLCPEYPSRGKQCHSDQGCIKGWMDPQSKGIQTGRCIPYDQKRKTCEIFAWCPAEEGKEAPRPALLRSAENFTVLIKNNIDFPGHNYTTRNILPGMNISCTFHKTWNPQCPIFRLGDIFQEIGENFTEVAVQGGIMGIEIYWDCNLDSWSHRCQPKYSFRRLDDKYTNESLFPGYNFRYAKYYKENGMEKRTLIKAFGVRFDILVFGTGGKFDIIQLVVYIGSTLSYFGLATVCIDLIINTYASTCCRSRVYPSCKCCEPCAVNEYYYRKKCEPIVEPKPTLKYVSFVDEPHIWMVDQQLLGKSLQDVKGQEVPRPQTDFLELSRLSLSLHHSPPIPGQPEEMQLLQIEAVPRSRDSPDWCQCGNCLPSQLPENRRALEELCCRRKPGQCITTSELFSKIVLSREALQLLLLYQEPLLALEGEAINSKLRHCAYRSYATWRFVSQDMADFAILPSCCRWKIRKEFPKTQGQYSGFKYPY
In words: Inhibition of rat P2X7 receptor transfected in HEK293 cells by calcium influx assay. The class given is cell-based.

The target in series [3] is T1, P2X purinoceptor 7. The experiment in a line: Inhibition of human P2X7 receptor transfected in HEK293 cells by calcium influx assay. The class given is cell-based.
The target of series [4] is T3, P2X purinoceptor 7 (Mus musculus, UniProt Q9Z1M0).
T3 sequence (Q9Z1M0 whole entry): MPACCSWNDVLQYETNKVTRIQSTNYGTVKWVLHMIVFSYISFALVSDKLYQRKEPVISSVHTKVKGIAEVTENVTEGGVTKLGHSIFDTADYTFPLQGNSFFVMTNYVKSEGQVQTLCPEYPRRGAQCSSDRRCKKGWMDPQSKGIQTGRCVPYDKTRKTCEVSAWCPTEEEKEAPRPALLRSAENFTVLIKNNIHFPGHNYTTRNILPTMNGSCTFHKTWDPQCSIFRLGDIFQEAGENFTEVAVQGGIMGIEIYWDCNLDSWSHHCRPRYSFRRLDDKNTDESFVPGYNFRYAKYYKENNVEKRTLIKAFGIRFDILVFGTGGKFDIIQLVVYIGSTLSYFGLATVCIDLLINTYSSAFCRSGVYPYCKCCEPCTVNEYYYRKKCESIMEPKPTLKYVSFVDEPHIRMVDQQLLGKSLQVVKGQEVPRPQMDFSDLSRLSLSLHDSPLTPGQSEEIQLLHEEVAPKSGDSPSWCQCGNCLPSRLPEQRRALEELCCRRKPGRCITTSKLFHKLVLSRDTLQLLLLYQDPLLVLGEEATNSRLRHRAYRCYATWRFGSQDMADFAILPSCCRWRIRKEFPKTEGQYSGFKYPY
The experiment in a line: Inhibition of mouse P2X7 receptor expressed in xenopus laevis Oocyte cells by TEVC analysis. Format: cell-based.

The target of series [5] is T3, P2X purinoceptor 7. In words: Inhibition of mouse P2X7 receptor expressed in HEK293 cells incubated for 5 mins followed by Bz-ATP addition measured after 3 mins by fluorescence based assay. Format: cell-based.
The target in series [6] is T1, P2X purinoceptor 7. In words: Inhibition of human P2X7 receptor expressed in HEK293 cells incubated for 5 mins followed by Bz-ATP addition measured after 3 mins by fluorescence based assay. The class given is cell-based.
The target in series [7] is T1, P2X purinoceptor 7. The experiment in a line: Inhibition of human P2X7 receptor in HEK cells by fluorescence based calcium influx assay. Format: cell-based.
For series [8], the target named is T3, P2X purinoceptor 7. The experiment in a line: Antagonist activity at P2X7 receptor in mouse Peritoneal macrophage cells assessed as reduction in ATP induced IL-1 beta release. The class given is cell-based.
Series [9] deals with T4, P2X purinoceptor 7 (Mus musculus) (UniProt Q9Z1M0).
T4 sequence (whole entry): T3 sequence (Q9Z1M0 whole entry)
The experiment in a line: Antagonist activity at P2X7 receptor in mouse Peritoneal macrophage cells assessed as ATP induced dye uptake at 10 uM relative to control. The settings on record: filed as antagonist. Format: cell-based.

A further series relates to Mus musculus. In words: Antiinflammatory activity in ATP induced mouse paw edema model. The class given is functional. The following applies: read-out: ID50 (the source's name).
In series [10] the target is T1, P2X purinoceptor 7. In words: Antagonist activity at P2X7 receptor in human THP-1 cells assessed as reduction in ATP induced IL-1 beta release. Format: cell-based.
In series [11] the target is T1, P2X purinoceptor 7. In words: Antagonist activity at P2X7 in human THP-1 cells. The class given is cell-based.
The nature of series [12]: Half life in human liver microsomes. Format: ADME, Microsome.
Series [13] concerns the target T1, P2X purinoceptor 7. In words: Inhibition of P2X7 (unknown origin) assessed as reduction in IL-1 beta release.
In series [14] the target is T1, P2X purinoceptor 7. In words: Inhibition of P2X7 in human THP-1cells assessed as reduction in YO-PRO-1 iodide dye uptake measured after 24 hrs by fluorescence based assay. Format: cell-based.
Series [15] can be described thus: Half life in Han Wistar rat plasma at 1 mg/kg, iv measured upto 6 hrs by liquid chromatography tandem mass spectrometry. Format: ADME, organism-based.
The nature of series [16]: Half life in Han Wistar rat Brain at 1 mg/kg, iv measured upto 6 hrs by liquid chromatography tandem mass spectrometry. The class given is ADME, organism-based.
The nature of series [17]: AUC(0 to 6 hrs) in Han Wistar rat Brain at 1 mg/kg, iv measured upto 6 hrs by liquid chromatography tandem mass spectrometry. The class given is ADME, organism-based. The arrangement: time < 6 hrs, dose 1 mg/kg, route iv.
A short description of series [18]: AUC(0 to 6 hrs) in Han Wistar rat plasma at 1 mg/kg, iv measured upto 6 hrs by liquid chromatography tandem mass spectrometry. Details: time < 6 hrs, dose 1 mg/kg, route iv. The class given is ADME, organism-based.
The target of series [19] is T1, P2X purinoceptor 7. The experiment in a line: Antagonist activity at human P2X7 receptor expressed in 1321N1 cells by FLIPR assay. The class given is cell-based.

With `O=C(OCC1c2ncn(-c3ccccc3)c2CCN1C(=O)c1cccc(C(F)(F)F)c1Cl)c1cccc(C(F)(F)F)c1Cl` (stereo not drawn), on P2X purinoceptor 7 [1], the IC50 is 3.1 nM.
On to `O=C(NCc1cccc(C(F)(F)F)c1Cl)[C@@]1(O)CCC(O)c2ncccc21` (stereo partly drawn), for which the IC50 on P2X purinoceptor 7 [2] was < 1000 nM; on P2X purinoceptor 7 [3], 101 nM.
`O=C(NCC1(c2ccc(CO[N+](=O)[O-])cc2)CCCCC1)c1ccccc1Cl` had an IC50 against P2X purinoceptor 7 [4] of 390 nM.
`O=C(NCC(c1scnc1C(F)F)N1CCC(Oc2cccc(Cl)n2)CC1)c1c(F)cccc1Cl` (stereo not drawn): the half-maximal inhibitory concentration (IC50) on P2X purinoceptor 7 [5] stood at 13.4 nM; on P2X purinoceptor 7 [6], 11.1 nM.
With `COc1ccc(Cl)c(C(=O)NCC23CC4CC(CC(F)(C4)C2)C3)c1`, the concentration for half-maximal inhibition (IC50) on P2X purinoceptor 7 [7] turned out to be 17 nM.
Take `CC1=C(C(c2ccc(Cl)cc2)n2cc(COCc3ccco3)nn2)C(=O)c2ccccc2C1=O` (stereo not drawn): the IC50 came out at 1500 nM on P2X purinoceptor 7 [8] and 1100 nM at P2X purinoceptor 7 [10]. Moreover, the inhibition in series [9] is 60%. Moreover, the ED50 in the series on Mus musculus came out at 16 mg/kg.
As to `CC1=C(Cn2cc(COCc3ccco3)nn2)C(=O)c2ccccc2C1=O`, the concentration for half-maximal inhibition (IC50) on P2X purinoceptor 7 [8] stood at 160000 nM; on P2X purinoceptor 7 [10] it was 184000 nM. Further, the inhibition in [9] was 60%.
`Cc1ccc2c(=O)n(C(C)CO)ccc2c1NC(=O)Cc1ccc(C(F)(F)F)c(F)c1` (stereo not drawn) returned an IC50 at P2X purinoceptor 7 [11] of 9.3 nM. Further, in [12], the half-life is 55.8 min.
Consider `C[C@H](CO)n1ccc2c(NC(=O)CC34CC5CC(CC(C5)C3)C4)cccc2c1=O`, for which the half-inhibitory concentration (IC50) worked out at 1 nM on P2X purinoceptor 7 [13] and 520 nM on P2X purinoceptor 7 [14].
Take `O=C1CCC(C(=O)NCC2CCCCCCC2)c2cccnc21` (stereo not drawn): the concentration for half-maximal inhibition (IC50) on P2X purinoceptor 7 [2] and at P2X purinoceptor 7 [3] was > 1000 nM throughout.
As to `COc1ccc(Cl)c(C(=O)NCC23CC4(F)CC(F)(CC(F)(C4)C2)C3)c1`, the half-life in series [15] is 103 min; in series [16], 75.6 min. For the same molecule, the area under the curve AUC(0-t) at 6 h in [17] was found to be 380 ng·h/mL; in series [18], 385 ng·h/mL.
As to `C[C@@H](CO)n1ccc2c(NC(=O)CC34CC5CC(CC(C5)C3)C4)cccc2c1=O`, the concentration for half-maximal inhibition (IC50) at P2X purinoceptor 7 [13] is 0.15 nM; on P2X purinoceptor 7 [14], 107 nM.
In the case of `CC1=C(C(c2ccccc2)n2cc(COCc3ccco3)nn2)C(=O)c2ccccc2C1=O` (stereo not drawn), the IC50 on P2X purinoceptor 7 [8] turned out to be 145000 nM; on P2X purinoceptor 7 [10] it was 140000 nM. The inhibition in series [9] came to 60%.
In the case of `Cc1ccc(C2(CNC(=O)c3cc(CO[N+](=O)[O-])ccc3Cl)CCCCC2)cc1`, at P2X purinoceptor 7 [4], the IC50 was 1430 nM.
On to `COc1ccc(Cl)c(C(=O)NCC23CC4CC(CC(C4)C2)C3)c1`, for which the values for the half-life in [15] and in [16] were 28.2 min and 9.6 min, respectively. Further, the results for the AUC(0-t) at 6 h in [17] and in series [18] were 221 ng·h/mL and 186 ng·h/mL, respectively.
Turning to `CC1=C(C(c2ccc([N+](=O)[O-])cc2)n2cc(COCc3ccco3)nn2)C(=O)c2ccccc2C1=O` (stereo not drawn), the half-maximal inhibitory concentration (IC50) turned out to be 187000 nM on P2X purinoceptor 7 [8] and 183000 nM on P2X purinoceptor 7 [10]. For the same molecule, in series [9], the inhibition amounted to 60%.
With `Cc1ccc(N2CCCC2=O)cc1Nc1nc(=O)cnn1Cc1cc(F)c(F)c(F)c1`, the IC50 against P2X purinoceptor 7 [19] was determined as 5.7 nM.
